Data published in article PMC10707724, “Dual Effects of 3-epi-betulin from Daphniphyllum glaucescens in Suppressing SARS-CoV-2-Induced Inflammation and Inhibiting Virus Entry” (International Journal of Molecular Sciences, 2023).

What was measured:
Format in all cases: cell-based
[1] = test system: SARS-CoV-2 SEMpv (D614G); details: read-out: EC50, pseudovirus entry
[2] = test system: SARS-CoV-2 Omicron (BA.1); assay: microbe, parasite or virus in culture; details: Omicron (BA.1), compared with the other variants
[3] = test system: SARS-CoV-2 SEMpv (N501Y); details: read-out: EC50, pseudovirus entry

## C=C(C)[C@@H]1CC[C@]2(CO)CC[C@]3(C)[C@H](CC[C@@H]4[C@@]5(C)CC[C@@H](O)C(C)(C)[C@@H]5CC[C@]43C)[C@@H]12 [Compound 5, 3-epi-Betulin]
[1]
  EC50: 12.5 µM
[2]
  inhibition activity against variant, in words: did not perform as well
[3]
  EC50: 13.1 µM
